Source: patent publication US11166959B2, “Isofuranone compounds useful as HPK1 inhibitors” (BRISTOL-MYERS SQUIBB COMPANY, priority 2017, dated 2021)

Key:
HPK1 = molecular target: T1, HPK1 (Homo sapiens, UniProt Q92918); assay: HPK1 Inhibition Assay (kinase reaction, Caliper capillary electrophoresis); format: biochemical; conditions: for IC50: 0.625 nM HPK1, 22 μM ATP, 11 concentrations, read-out: HPK1 IC50; for IRAK4/HPK1 Ratio: ratio of the IRAK4 IC50 value to the HPK1 IC50 value
T1 construct: purchased SignalChem M23-11G
T1 sequence (Q92918 1-346 limits assumed): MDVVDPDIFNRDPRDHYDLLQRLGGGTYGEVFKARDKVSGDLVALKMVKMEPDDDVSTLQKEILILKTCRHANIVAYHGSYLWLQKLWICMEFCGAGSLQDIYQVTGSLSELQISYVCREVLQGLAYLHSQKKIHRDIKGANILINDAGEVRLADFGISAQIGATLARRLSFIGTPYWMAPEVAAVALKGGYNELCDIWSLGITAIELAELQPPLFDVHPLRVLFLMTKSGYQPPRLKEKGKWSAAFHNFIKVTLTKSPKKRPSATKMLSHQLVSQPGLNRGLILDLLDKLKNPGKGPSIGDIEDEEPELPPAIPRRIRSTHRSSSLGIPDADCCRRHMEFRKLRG
Description: (§1) The reactions were incubated out for three hours and quenched with 1 mM EDTA solution. The reaction incubation time and enzyme concentration were optimized to obtain a maximum peptide substrate conversion of 20-30%. The reaction mixtures were analyzed by capillary electrophoresis on a Caliper LabChip EZ Reader to resolve phosphorylated and unphosphorylated peptide species and determine peptide substrate conversion. […] The compounds were dissolved in DMSO and evaluated at 11 concentrations to determine the IC50 values.

IRAK4 = molecular target: T2, IRAK4 (Homo sapiens, UniProt Q9NWZ3); assay: IRAK4 Inhibition Assay (kinase reaction, Caliper capillary electrophoresis); format: biochemical; conditions: 500 μM ATP, 11 concentrations
T2 construct: 1 nM IRAK4 (160-460); purchased SignalChem M24016
T2 sequence (Q9NWZ3 160-460): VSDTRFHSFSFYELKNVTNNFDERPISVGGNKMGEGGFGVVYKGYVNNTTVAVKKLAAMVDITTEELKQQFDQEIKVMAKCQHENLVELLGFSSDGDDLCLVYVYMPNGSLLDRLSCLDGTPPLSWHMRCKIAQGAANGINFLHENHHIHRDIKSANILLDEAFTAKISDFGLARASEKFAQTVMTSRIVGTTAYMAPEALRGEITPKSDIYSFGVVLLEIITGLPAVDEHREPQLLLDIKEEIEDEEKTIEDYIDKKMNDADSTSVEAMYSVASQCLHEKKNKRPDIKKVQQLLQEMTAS
Description: as §1, with “determine” for “determine the”

| Compound | IC50 (HPK1) [nM] | IRAK4/HPK1 Ratio (HPK1) | IC50 (IRAK4) [nM] |
| --- | --- | --- | --- |
| CC1(C)OC(=O)c2ccc(Nc3ncc(-c4nc(CN5CCOCC5)no4)c(N[C@H](CO)c4ccccc4)n3)cc21 [Example 32, 5-[(4-{[(1S)-2-hydroxy-1-phenylethyl]amino}-5-{3-[(morpholin-4-yl)methyl]-1,2,4-oxadiazol-5-yl}pyrimidin-2-yl)amino]-3,3-dimethyl-1,3-dihydro-2-benzofuran-1-one] | < 50 | C (C=>50) | 250 to 1000 |
| COC(=O)NC12CC(c3noc(-c4cnc(Nc5ccc6c(c5)C(C)(C)OC6=O)nc4N[C@H](CO)c4ccccc4)n3)(C1)C2 [Example 50, Methyl N-[3-(5-{2-[(3,3-dimethyl-1-oxo-1,3-dihydro-2-benzofuran-5-yl)amino]-4-{[(1S)-2-hydroxy-1-phenylethyl]amino}pyrimidin-5-yl}-1,2,4-oxadiazol-3-yl)bicyclo[1.1.1]pentan-1-yl]carbamate] | < 50 | C (C=>50) | 250 to 1000 |
| CC(C)(O)C(=O)NNC(=O)c1cnc(Nc2ccc3c(c2)C(C)(C)OC3=O)nc1N[C@H](CO)c1ccccc1 [Example 60, 2-[(3,3-dimethyl-1-oxo-1,3-dihydro-2-benzofuran-5-yl)amino]-4-{[(1S)-2-hydroxy-1-phenylethyl]amino}-N′-(2-hydroxy-2-methylpropanoyl)pyrimidine-5-carbohydrazide] | 50 to 250 | B (B=10 to 50) | 250 to 1000 |
| CC(C)(CO)c1noc(-c2cnc(Nc3ccc4c(c3)C(C)(C)OC4=O)nc2N[C@H](CO)c2ccccc2)n1 [Example 41, (S)-5-((4-((2-hydroxy-1-phenylethyl)amino)-5-(3-(1-hydroxy-2-methylpropan-2-yl)-1,2,4-oxadiazol-5-yl)pyrimidin-2-yl)amino)-3,3-dimethylisobenzofuran-1(3H)-one] | < 50 | C (C=>50) | 50 to 250 |
| CC1(C)OC(=O)c2ccc(Nc3ncc(C(=O)NNC(=O)c4cnccn4)c(N[C@H](CO)c4ccccc4)n3)cc21 [Example 58, N′-{2-[(3,3-dimethyl-1-oxo-1,3-dihydro-2-benzofuran-5-yl)amino]-4-{[(1S)-2-hydroxy-1-phenylethyl]amino}pyrimidine-5-carbonyl} pyrazine-2-carbohydrazide] | < 50 | B (B=10 to 50) | 250 to 1000 |
| C#CCNC(=O)c1cnc(Nc2ccc3c(c2)C(C)(C)OC3=O)nc1N[C@H](CO)c1ccccc1 [Example 21, 2-[(3,3-dimethyl-1-oxo-1,3-dihydro-2-benzofuran-5-yl)amino]-4-{[(1S)-2-hydroxy-1-phenylethyl]amino}-N-(prop-2-yn-1-yl)pyrimidine-5-carboxamide] | < 50 | B (B=10 to 50) | 250 to 1000 |

The next lines start with the values.

| IC50 (HPK1) [nM] | IRAK4/HPK1 Ratio (HPK1) | IC50 (IRAK4) [nM] | Compound |
| --- | --- | --- | --- |
| < 50 | C (C=>50) | 250 to 1000 | CC1(C)OC(=O)c2ccc(Nc3ncc(C(=O)NN)c(N[C@H](CO)c4ccccc4)n3)cc21 [Example 51, 2-[(3,3-dimethyl-1-oxo-1,3-dihydro-2-benzofuran-5-yl)amino]-4-{[(1S)-2-hydroxy-1-phenylethyl]amino}pyrimidine-5-carbohydrazide] |
| 50 to 250 | B (B=10 to 50) | 250 to 1000 | CC1(C)OC(=O)c2ccc(Nc3ncc(C(=O)N[C@H]4C[C@@H]4c4ccccc4)c(N[C@H](CO)c4ccccc4)n3)cc21 [Example 17, 2-[(3,3-dimethyl-1-oxo-1,3-dihydro-2-benzofuran-5-yl)amino]-4-{[(1S)-2-hydroxy-1-phenylethyl]amino}-N-[(1S,2R)-2-phenylcyclopropyl]pyrimidine-5-carboxamide] |
| < 50 | B (B=10 to 50) | 250 to 1000 | CC(C)(C)NC(=O)c1cnc(Nc2ccc3c(c2)C(C)(C)OC3=O)nc1N[C@H](CO)c1ccccc1 [Example 11, N-tert-butyl-2-[(3,3-dimethyl-1-oxo-1,3-dihydro-2-benzofuran-5-yl)amino]-4-{[(1S)-2-hydroxy-1-phenylethyl]amino}pyrimidine-5-carboxamide] |
